Laboratory results as given in BindingDB's records for doi:10.1016/j.bioorg.2016.12.011 (University of Karachi, 2017).

target: T1, Beta-glucuronidase (Bos taurus, UniProt A3KMY8); assay: β-Glucuronidase Inhibition Assay
T1 sequence (A3KMY8 whole entry): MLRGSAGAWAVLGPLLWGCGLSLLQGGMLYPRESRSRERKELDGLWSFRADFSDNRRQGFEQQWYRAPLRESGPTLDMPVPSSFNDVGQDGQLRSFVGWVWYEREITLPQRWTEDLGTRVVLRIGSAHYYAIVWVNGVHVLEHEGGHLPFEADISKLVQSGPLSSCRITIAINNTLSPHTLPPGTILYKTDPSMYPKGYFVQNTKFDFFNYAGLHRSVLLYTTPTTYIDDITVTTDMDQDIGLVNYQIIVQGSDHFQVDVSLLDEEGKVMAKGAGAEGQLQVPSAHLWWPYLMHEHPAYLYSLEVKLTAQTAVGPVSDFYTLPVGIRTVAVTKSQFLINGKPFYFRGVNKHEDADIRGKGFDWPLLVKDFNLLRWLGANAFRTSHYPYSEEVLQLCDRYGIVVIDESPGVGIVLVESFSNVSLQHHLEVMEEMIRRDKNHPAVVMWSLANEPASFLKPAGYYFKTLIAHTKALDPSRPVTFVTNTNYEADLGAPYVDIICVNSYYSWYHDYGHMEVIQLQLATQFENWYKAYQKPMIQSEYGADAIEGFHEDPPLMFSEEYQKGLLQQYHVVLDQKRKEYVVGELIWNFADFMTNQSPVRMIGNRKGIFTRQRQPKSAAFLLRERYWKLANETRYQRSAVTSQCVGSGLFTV
Experimental: Total volume of reaction was 250 μL. […] Reaction mixture comprised of 0.1 M acetate buffer (185 μL), test compound solution in DMSO (5 μL), enzyme solution (10 μL), was incubated for 30 min at 37 °C. […] All assays were run in triplicate.

| IC50 | SMILES |
| --- | --- |
| 36.1 µM | C(=N\Nc1nc(-c2ccc(-c3ccccc3)cc2)cs1)/c1ccc2ccc3cccc4ccc1c2c34 [(E)-4-([1,10-Biphenyl]-4-yl)-2-(2-(pyren-1-ylmethylene)hydrazinyl)thiazole (5)] |
| 11.1 µM | Clc1ccc(-c2csc(C/C=C/c3ccc4ccc5cccc6ccc3c4c56)n2)cc1 [(E)-4-(4-Chlorophenyl)-2-(3-(pyren-1-yl)allyl)thiazole (10)] |
| 24.4 µM | COc1ccc(-c2csc(N/N=C/c3ccc4ccc5cccc6ccc3c4c56)n2)cc1 [(E)-4-(4-Methoxyphenyl)-2-(2-(pyren-1-ylmethylene)hydrazinyl)thiazole (3)] |

Continued, molecule first:

| SMILES | IC50 |
| --- | --- |
| Cc1ccc(-c2csc(N/N=C/c3ccc4ccc5cccc6ccc3c4c56)n2)cc1 [(E)-2-(2-(Pyren-1-ylmethylene)hydrazinyl)-4-(p-tolyl)thiazole (4)] | 40.1 µM |
| NC(=S)N/N=C/c1ccc2ccc3cccc4ccc1c2c34 [(E)-2-(Pyren-1-ylmethylene)hydrazine-1-carbothioamide (2)] | 5.5 µM |
